Results reported in paper PMC6273578, “Design, Synthesis and Biological Evaluation of Benzohydrazide Derivatives Containing Dihydropyrazoles as Potential EGFR Kinase Inhibitors” (Molecules, 2016).

Legend:
A549 cells = assay: MTT antiproliferative assay, A549; assay type: cell-based, human; details: Homo sapiens, read-out: In vitro antiproliferative activity IC50, A549
Protocol: (§1) IC50 values of the test compounds against A549, MCF-7, Hela and HepG2 cells were obtained from State Key Laboratory of Pharmaceutical Biotechnology, Nanjing University, and were determined by a standard (MTT)-based colorimetric assay (Beyotime Inst. Biotech., Nanjing, China). Tumor cell lines were grown to mid-log phase and then diluted to […] making sure they were seeded in 96-well plates (Philas, Nanjing, China) at a density of 5 × 10^3–1 × 10^4 cells per well. The outer wells containing 1 × PBS solution of the plate are not used for the assay to avoid the possibility of edge effects. The plate was incubated at 37 °C in a 5% CO2 incubator in DMEM containing 10% fetal bovine serum (FBS, Gibco, Waltham, MA, USA) for 24 h. Then, we added a 100-μL series concentration of drug-containing medium into the wells to maintain the final concentration of drug as 100, 10, 1 and 0.1 μmol/L. After 12 h, cell survival was determined by the addition of a MTT (3-(4,5-dimethylthiazol-2-yl)-2,5-diphenyl trtrazolium bromide) solution (10 μL of 5 mg/mL MTT in 1 × PBS). We waited for 4 h proliferation, discarded the medium and quickly added 150 μL DMSO per well, shaking the plates well for 10 min to ensure complete dissolution. Optical absorbance was measured at 570 nm on a microplate reader (Bio-Rad, Hercules, CA, USA). Survival ratios are expressed in percentages with respect to untreated cells. The experiments were replicated at least three times to verify the methodology reproducibility when using the above-mentioned conditions.

MCF-7 cells = assay: MTT antiproliferative assay, MCF-7; assay type: cell-based, human; details: Homo sapiens, MCF7, read-out: In vitro antiproliferative activity IC50, MCF-7
Protocol: as §1

HeLa cells = assay: MTT antiproliferative assay, HeLa; assay type: cell-based, human; details: Homo sapiens, read-out: In vitro antiproliferative activity IC50, HeLa
Protocol: as §1

HepG2 cells = assay: MTT antiproliferative assay, HepG2; assay type: cell-based, human; details: Homo sapiens, read-out: In vitro antiproliferative activity IC50, HepG2
Protocol: as §1

[1] = Cytotoxicity test (MTT) on 293T cells; details: human, 293T human kidney epithelial cells
Protocol: The cytotoxic activity in vitro was measured by the colorimetric MTT assay. […] For the cytotoxicity assay, 20 μL of MTT (5 mg/mL) was added per well 4 h before the end of the incubation. After removing the supernatant, 200 μL DMSO was added to dissolve the formazan crystals. The absorbance at λ 570 nm was read on an LX300 Epson Diagnostic microplate reader, untreated cells were used as negative controls.

[2] = molecular target: epidermal growth factor receptor (EGFR) (Homo sapiens, UniProt P00533); assay: EGFR kinase inhibition, solid-phase ELISA assay
epidermal growth factor receptor (EGFR), sequence (P00533 25-1210): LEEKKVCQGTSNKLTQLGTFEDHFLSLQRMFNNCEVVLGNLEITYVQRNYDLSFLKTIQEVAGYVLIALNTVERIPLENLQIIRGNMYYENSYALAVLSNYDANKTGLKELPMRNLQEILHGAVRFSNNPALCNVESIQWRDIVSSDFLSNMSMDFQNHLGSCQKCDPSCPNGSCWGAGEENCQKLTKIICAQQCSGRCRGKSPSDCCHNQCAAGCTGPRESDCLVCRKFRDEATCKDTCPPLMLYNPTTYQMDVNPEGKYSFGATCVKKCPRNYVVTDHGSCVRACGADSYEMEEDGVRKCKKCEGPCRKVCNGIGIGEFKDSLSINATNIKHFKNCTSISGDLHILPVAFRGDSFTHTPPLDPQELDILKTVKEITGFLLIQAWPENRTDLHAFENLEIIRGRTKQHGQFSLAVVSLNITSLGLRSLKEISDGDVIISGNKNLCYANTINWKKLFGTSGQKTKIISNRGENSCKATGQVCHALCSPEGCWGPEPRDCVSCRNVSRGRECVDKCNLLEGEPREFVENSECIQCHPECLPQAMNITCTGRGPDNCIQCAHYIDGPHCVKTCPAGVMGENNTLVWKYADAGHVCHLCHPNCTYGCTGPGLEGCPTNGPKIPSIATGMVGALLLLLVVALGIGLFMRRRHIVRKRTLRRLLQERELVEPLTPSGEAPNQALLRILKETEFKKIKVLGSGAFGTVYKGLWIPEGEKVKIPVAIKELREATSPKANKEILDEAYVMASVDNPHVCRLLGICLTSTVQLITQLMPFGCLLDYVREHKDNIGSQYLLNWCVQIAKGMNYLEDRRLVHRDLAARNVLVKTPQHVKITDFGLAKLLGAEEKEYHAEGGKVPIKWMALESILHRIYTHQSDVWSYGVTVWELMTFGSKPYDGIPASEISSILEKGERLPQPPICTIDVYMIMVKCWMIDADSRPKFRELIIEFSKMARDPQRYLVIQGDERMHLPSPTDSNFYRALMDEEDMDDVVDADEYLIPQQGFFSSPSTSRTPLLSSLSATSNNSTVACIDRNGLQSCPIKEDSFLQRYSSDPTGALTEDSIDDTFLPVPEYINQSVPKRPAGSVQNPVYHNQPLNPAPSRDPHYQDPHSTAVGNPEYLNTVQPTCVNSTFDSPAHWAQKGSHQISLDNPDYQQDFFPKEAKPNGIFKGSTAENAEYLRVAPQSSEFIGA
Protocol: All these newly synthesized compounds were evaluated for their inhibitory activities against EGFR kinases using a solid-phase ELISA assay.
EGFR tyrosine kinase activity was determined by an enzyme linked-immunosorbent assay (ELISA) in 96-well plates precoated in a 10 mL reaction volume including 4 mL diluted test compounds, 4 mL substrate and 2 mL ATP. […] The plates were then aspirated and washed twice with 200 mL 0.9% (w/v) NaCl, and incorporation of Pi was determined with an LX300 Epson Diagnostic microplate reader. […] The experiments were replicated at least three times to verify the methodology reproducibility when using the above-mentioned conditions.

IC50 (A549 cells) [µM] | IC50 (MCF-7 cells) [µM] | IC50 (HeLa cells) [µM] | IC50 (HepG2 cells) [µM] | melting point [°C] | IC50 [2] [µM] | Structure (SMILES) | CC50 at 24 h [1] [µM]
39.4 | 56.1 | 47.7 | 48.1 | 238 to 240 | 12.3 | COc1ccc(/C=N/NC(=O)c2ccc(N3N=C(c4cc(F)cc(F)c4)CC3c3ccc4ccccc4c3)cc2)cc1 (centres unmarked) [Compound H28, (E)-4-(3-(3,5-Difluorophenyl)-5-(naphthalen-2-yl)-4,5-dihydro-1H-pyrazol-1-yl)-N′-(4-methoxy-benzylidene)benzohydrazide] | 82.2
50.6 | 70.4 | 63.8 | 76.5 | 235 to 237 | 16.2 | COc1cccc(/C=N/NC(=O)c2ccc(N3N=C(c4ccccc4F)CC3c3ccc4ccccc4c3)cc2)c1 (centres unmarked) [Compound H9, (E)-4-(3-(2-Fluorophenyl)-5-(naphthalen-2-yl)-4,5-dihydro-1H-pyrazol-1-yl)-N′-(3-methoxybenzylidene)-benzohydrazide] | 83.4
56.4 | 77.5 | 85.2 | 80.1 | 240 to 242 | 18.6 | COc1ccc(/C=N/NC(=O)c2ccc(N3N=C(c4cccc(F)c4)CC3c3ccc4ccccc4c3)cc2)cc1 (centres unmarked) [Compound H26, (E)-4-(3-(3-Fluorophenyl)-5-(naphthalen-2-yl)-4,5-dihydro-1H-pyrazol-1-yl)-N′-(4-methoxybenzylidene)-benzohydrazide] | 94.3
44.1 | 59 | 54.2 | 62.9 | 236 to 238 | 13.8 | COc1ccc(/C=N/NC(=O)c2ccc(N3N=C(c4ccc(F)cc4)CC3c3ccc4ccccc4c3)cc2)cc1 (centres unmarked) [Compound H27, (E)-4-(3-(4-Fluorophenyl)-5-(naphthalen-2-yl)-4,5-dihydro-1H-pyrazol-1-yl)-N'-(4-methoxybenzylidene)-benzohydrazide] | 89.4
33.2 | 50.9 | 43 | 41 | 241 to 243 | 11.2 | COc1ccc(/C=N/NC(=O)c2ccc(N3N=C(c4cccc(Cl)c4)CC3c3ccc4ccccc4c3)cc2)cc1 (centres unmarked) [Compound H29, (E)-4-(3-(3-Chlorophenyl)-5-(naphthalen-2-yl)-4,5-dihydro-1H-pyrazol-1-yl)-N′-(4-methoxybenzylidene)-benzohydrazide] | 94.4
26.6 | 35.2 | 33.6 | 38.9 | 234 to 236 | 9.87 | COc1cccc(/C=N/NC(=O)c2ccc(N3N=C(c4ccc(Cl)c(Cl)c4)CC3c3ccc4ccccc4c3)cc2)c1 (centres unmarked) [Compound H15, (E)-4-(3-(3,4-Dichlorophenyl)-5-(naphthalen-2-yl)-4,5-dihydro-1H-pyrazol-1-yl)-N′-(3-methoxy-benzylidene)benzohydrazide] | 88.2

The next lines start with the compound.

Structure (SMILES) | IC50 (A549 cells) [µM] | IC50 (MCF-7 cells) [µM] | IC50 (HeLa cells) [µM] | IC50 (HepG2 cells) [µM] | melting point [°C] | IC50 [2] [µM] | CC50 at 24 h [1] [µM]
COc1ccc(/C=N/NC(=O)c2ccc(N3N=C(c4cc(OC)c(OC)c(OC)c4)CC3c3ccc4ccccc4c3)cc2)cc1 (centres unmarked) [Compound H23, (E)-N′-(4-Methoxybenzylidene)-4-(5-(naphthalen-2-yl)-3-(3,4,5-trimethoxyphenyl)-4,5-dihydro-1H-pyrazol-1-yl)benzohydrazide] | 75.7 | 93.2 | 94.1 | 89.5 | 237 to 239 | 24.6 | 85.8
CCOc1ccc(C2=NN(c3ccc(C(=O)N/N=C/c4ccc(OC)cc4)cc3)C(c3ccc4ccccc4c3)C2)cc1 (centres unmarked) [Compound H24, (E)-4-(3-(4-Ethoxyphenyl)-5-(naphthalen-2-yl)-4,5-dihydro-1H-pyrazol-1-yl)-N′-(4-methoxybenzylidene)-benzohydrazide] | 9.92 | 13.8 | 15.3 | 18.6 | 237 to 239 | 6.65 | 81.3
CCOc1ccc(C2=NN(c3ccc(C(=O)N/N=C/c4cccc(OC)c4)cc3)C(c3ccc4ccccc4c3)C2)cc1 (centres unmarked) [Compound H8, (E)-4-(3-(4-Ethoxyphenyl)-5-(naphthalen-2-yl)-4,5-dihydro-1H-pyrazol-1-yl)-N′-(3-methoxybenzylidene)-benzohydrazide] | 10.7 | 15.9 | 17.1 | 19.8 | 233 to 235 | 7.2 | 79.7
COc1ccc(/C=N/NC(=O)c2ccc(N3N=C(c4ccc(Cl)c(Cl)c4)CC3c3ccc4ccccc4c3)cc2)cc1 (centres unmarked) [Compound H31, (E)-4-(3-(3,4-Dichlorophenyl)-5-(naphthalen-2-yl)-4,5-dihydro-1H-pyrazol-1-yl)-N'-(4-methoxy-benzylidene)benzohydrazide] | 24.8 | 34.4 | 31.8 | 36.3 | 243 to 245 | 9.66 | 84.8
COc1cccc(/C=N/NC(=O)c2ccc(N3N=C(c4ccc(Br)cc4)CC3c3ccc4ccccc4c3)cc2)c1 (centres unmarked) [Compound H16, (E)-4-(3-(4-Bromophenyl)-5-(naphthalen-2-yl)-4,5-dihydro-1H-pyrazol-1-yl)-N′-(3-methoxybenzylidene)-benzohydrazide] | 21.8 | 31.9 | 26.5 | 34.2 | 245 to 247 | 9.01 | 81.9
COc1cccc(/C=N/NC(=O)c2ccc(N3N=C(c4cccc(Cl)c4)CC3c3ccc4ccccc4c3)cc2)c1 (centres unmarked) [Compound H13, (E)-4-(3-(3-Chlorophenyl)-5-(naphthalen-2-yl)-4,5-dihydro-1H-pyrazol-1-yl)-N′-(3-methoxybenzylidene)-benzohydrazide] | 35.2 | 51.3 | 46.4 | 45.4 | 231 to 233 | 11.9 | 93.4
COc1cccc(/C=N/NC(=O)c2ccc(N3N=C(c4cc(F)cc(F)c4)CC3c3ccc4ccccc4c3)cc2)c1 (centres unmarked) [Compound H12, (E)-4-(3-(3,5-Difluorophenyl)-5-(naphthalen-2-yl)-4,5-dihydro-1H-pyrazol-1-yl)-N′-(3-methoxybenzylidene) benzohydrazide] | 41.5 | 55.6 | 50.3 | 52.3 | 225 to 227 | 12.8 | 80.2
COc1ccc(/C=N/NC(=O)c2ccc(N3N=C(c4ccc(Cl)cc4)CC3c3ccc4ccccc4c3)cc2)cc1 (centres unmarked) [Compound H30, (E)-4-(3-(4-Chlorophenyl)-5-(naphthalen-2-yl)-4,5-dihydro-1H-pyrazol-1-yl)-N′-(4-methoxybenzylidene)-benzohydrazide] | 28.6 | 40.4 | 35.3 | 38.2 | 237 to 239 | 10 | 88.5
C#Cc1cccc(Nc2ncnc3cc(OCCOC)c(OCCOC)cc23)c1 [Erlotinib, reference compound] | 0.2 | 0.12 | 0.17 | 0.1 |  |  | 
COc1cccc(/C=N/NC(=O)c2ccc(N3N=C(c4ccc(Cl)cc4)CC3c3ccc4ccccc4c3)cc2)c1 (centres unmarked) [Compound H14, (E)-4-(3-(4-Chlorophenyl)-5-(naphthalen-2-yl)-4,5-dihydro-1H-pyrazol-1-yl)-N′-(3-methoxybenzylidene)-benzohydrazide] | 30.1 | 42.5 | 37.4 | 40.2 | 236 to 238 | 10.3 | 90.1
COc1ccc(/C=N/NC(=O)c2ccc(N3N=C(c4ccccc4F)CC3c3ccc4ccccc4c3)cc2)cc1 (centres unmarked) [Compound H25, (E)-4-(3-(2-Fluorophenyl)-5-(naphthalen-2-yl)-4,5-dihydro-1H-pyrazol-1-yl)-N′-(4-methoxybenzylidene)-benzohydrazide] | 48.6 | 65.5 | 61.9 | 71.1 | 244 to 246 | 15.3 | 85.6
